Test system: Glo-Response ARE-luc2P HEK293 cell line
Test: ARE luciferase reporter cell-based assay;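 also: luciferase signal tracks Nrf2 activation of the ARE once compounds disrupt KEAP1-Nrf2 binding, read with One-Glo reagent, DMSO serving as low control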
Details: Homo sapiens, HEK293, 24 h, average of results obtained

Row | SMILES | EC50 [nM]
1 | Cc1ccc(C(c2ccn3c(C(F)F)nnc3c2C)C(C)(C)C(=O)O)cc1CN1CC2(CC2)Oc2ncccc2S1(=O)=O (racemic) [Example 566, (R/S)-3-(3-(Difluoromethyl)-8-methyl-[1,2,4]triazolo[4,3-a]pyridin-7-yl)-3-(3-((1′,1′-dioxidospiro[cyclopropane-1,4′-pyrido[2,3-b][1,4,5]oxathiazepin]-2′(3′H)-yl)methyl)-4-methylphenyl)-2,2-dimethylpropanoic Acid] | 6.81
2 | Cc1cnc2c(c1)S(=O)(=O)N(Cc1cc([C@@H](c3ccn4c(C(F)(F)F)nnc4c3C)C(C)(C)C(=O)O)ccc1C)CC1(CCOCC1)O2 (single isomer, unassigned) [Example 18, (*S)-2,2-Dimethyl-3-(4-methyl-3-((8′-methyl-1′,1′-dioxido-2,3,5,6-tetrahydrospiro[pyran-4,4′-pyrido[2,3-b][1,4,5]oxathiazepin]-2′(3′H)-yl)methyl)phenyl)-3-(8-methyl-3-(trifluoromethyl)-[1,2,4]triazolo[4,3-a]pyridin-7-yl)propanoic Acid] | 1.5
3 | Cc1cnc2c(c1)S(=O)(=O)N(Cc1nc([C@@H](CC(=O)O)c3ccn4c(C(F)(F)F)nnc4c3C)ccc1C)C[C@@H]1CCCCN21 (relative stereo) [Example 488, (*S)-3-(8-Methyl-3-(trifluoromethyl)-[1,2,4]triazolo[4,3-a]pyridin-7-yl)-3-(5-methyl-6-(((*S)-3-methyl-5,5-dioxido-7,7a,8,9,10,11-hexahydro-6H-dipyrido[2,1-d:2′,3′-f][1,2,5]thiadiazepin-6-yl)methyl)pyridin-2-yl)propanoic Acid] | 11.9
4 | Cc1ccc([C@H](c2ccn3c(C(F)(F)F)nnc3c2C)C(C)C(=O)O)cc1CN1C[C@@H]2CCCCN2c2ncccc2S1(=O)=O (relative stereo) [Example 130, (3*R)-3-(3-(((*S)-5,5-Dioxido-7,7a,8,9,10,11-hexahydro-6H-dipyrido[2,1-d:2′,3′-f][1,2,5]thiadiazepin-6-yl)methyl)-4-methylphenyl)-2-methyl-3-(8-methyl-3-(trifluoromethyl)-[1,2,4]triazolo[4,3-a]pyridine-7-yl)propanoic Acid] | 54.8
5 | Cc1ccc([C@H](CC(=O)O)c2ccn3c(C(F)(F)F)nnc3c2C)cc1CN1C[C@@H]2CCCN2c2ncc(C#N)cc2S1(=O)=O (relative stereo) [Example 206, (*S)-3-(3-(((S)-3-Cyano-5,5-dioxido-7a,8,9,10-tetrahydropyrido[2,3-f]pyrrolo[2,1-d][1,2,5]thiadiazepin-6(7H)-yl)methyl)-4-methylphenyl)-3-(8-methyl-3-(trifluoromethyl)-[1,2,4]triazolo[4,3-a]pyridin-7-yl)propanoic Acid] | 14
6 | CCn1nnc2c(C)c([C@@H](CC(=O)O)c3ccc(C)c(CN4C[C@@H]5CCCCN5c5ncccc5S4(=O)=O)c3)ccc21 (single isomer, unassigned) [Example 142, (*S)-3-(3-(((*S)-5,5-Dioxido-7,7a,8,9,10,11-hexahydro-6H-dipyrido[2,1-d:2′,3′-f][1,2,5]thiadiazepin-6-yl)methyl)-4-methylphenyl)-3-(1-ethyl-4-methyl-1H-benzo[d][1,2,3]triazol-5-yl)propanoic Acid] | 1.1
7 | Cc1cc2cc([C@H](c3ccc(C)c(CN4CC5(CC5)Oc5nc(OCCN6CCCCC6)c(C)cc5S4(=O)=O)c3)C(C)(C)C(=O)O)n(C)c2nn1 (single isomer, unassigned) [Example 351, (*R)-3-(3,7-Dimethyl-7H-pyrrolo[2,3-c]pyridazine-6-yl)-2,2-dimethyl-3-(4-methyl-3-((8′-methyl-1′,1′-dioxido-7′-(2-(piperidine-1-yl)-ethoxy)spiro[cyclopropane-1,4′-pyrido[2,3-b][1,4,5]oxathiazepin]-2′,(3′H)-yl)methyl)phenyl)propanoic Acid] | 836
8 | Cc1c([C@@H](CC(=O)O)c2ccc(Cl)c(CN3CC4(COC4)Oc4ccccc4S3(=O)=O)c2)ccn2c(C(F)(F)F)nnc12 (single isomer, unassigned) [Example 97, (*S)-3-(4-Chloro-3-((1′,1′-dioxoidospiro[benzo[b]]oxethiazepine-4,3′-oxetan]-2(3H)-yl)methyl)phenyl)-3-(8-methyl-3-(trifluoromethyl)-[1,2,4]triazolo[4,3-a]pyridine-7-yl)propanoic Acid] | 5290
9 | Cc1ccc([C@H](c2ccn3c(C(F)(F)F)nnc3c2C)C(C)(C)C(=O)O)cc1CN1CC2(CCOCC2)Oc2nc(CCC(=O)NCCOCCN)ccc2S1(=O)=O (single isomer, unassigned) [Example 344, (*R)-3-(3-((7′-(3-((2-(2-Aminoethoxy)ethyl)amino)-3-oxopropyl)-1′,1′-dioxido-2,3,5,6-tetrahydrospiro[pyran-4,4′-pyrido[2,3-b][1,4,5]oxathiazepin]-2′(3′H)-yl)methyl)-4-methylphenyl)-2,2-dimethyl-3-(8-methyl-3-(trifluoromethyl)-[1,2,4]triazolo[4,3-a]pyridin-7-yl)propanoic Acid] | 4930
10 | Cc1cnc2c(c1)S(=O)(=O)N(Cc1cc([C@@H](CC(=O)O)c3ccn4c(C(F)F)nnc4c3C)ccc1C)C[C@H]1CCCCN21 (stereo in doubt) [Example 504, (*R)-3-(3-(Difluoromethyl)-8-methyl-[1,2,4]triazolo[4,3-a]pyridin-7-yl)-3-(4-methyl-3-(((*R)-3-methyl-5,5-dioxido-7,7a,8,9,10,11-hexahydro-6H-dipyrido[2,1-d:2′,3′-f][1,2,5]thiadiazepin-6-yl)methyl)phenyl)propanoic Acid] | 7.22
11 | CCn1nnc2c(C)c(C(CC(=O)O)c3ccc(C)c(CN4C[C@H]5CCCCN5c5ncccc5S4(=O)=O)c3)ccc21 (mixture of isomers) [Example 144, (R/S)-3-(3-(((*R)-5,5-Dioxido-7,7a,8,9,10,11-hexahydro-6H-dipyrido[2,1-d:2′,3′-f][1,2,5]thiadiazepin-6-yl)methyl)-4-methylphenyl)-3-(1-ethyl-4-methyl-1H-benzo[d][1,2,3]triazol-5-yl)propanoic Acid] | 3.1
12 | Cc1ccc(C(c2ccn3c(C(F)(F)F)nnc3c2C)C(C)(C)C(=O)O)cc1CN1CC2(CC2)Oc2ncccc2S1(=O)=O (stereo not shown) [Example 316, 3-(3-((1′,1′-Dioxidospiro[cyclopropane-1,4′-pyrido[2,3-b][1,4,5]oxathiazepin]-2′(3′H)-yl)methyl)-4-methylphenyl)-2,2-dimethyl-3-(8-methyl-3-(trifluoromethyl)-[1,2,4]triazolo[4,3-a]pyridin-7-yl)propanoic Acid] | 1.3
13 | CCn1nnc2c(C)c([C@H](CC(=O)O)c3ccc(C)c(CN4C[C@@H]5COCCN5c5ncccc5S4(=O)=O)c3)ccc21 (single isomer, unassigned) [Example 140, (*R)-3-(3-(((*R)-5,5-Dioxido-7a,8,10,11-tetrahydro-[1,4]oxazino[3,4-d]pyrido[2,3-f][1,2,5]thiadiazepin-6(7H)-yl)methyl)-4-methylphenyl)-3-(1-ethyl-4-methyl-1H-benzo[d][1,2,3]triazol-5-yl)propanoic Acid] | 19

Source: patent US10947252B2, “Inhibitors of KEAP1-Nrf2 protein-protein interaction” (Janssen Pharmaceutica NV, priority 2018, dated 2021)
